These are literature values, as cited in patent publication US6652866B1 (priority 1997, dated 2003).

Each structure is given as a SMILES string.

The test system of this series is scrapie. Particulars: hamsters.

Consider `C[C@@H]1[C@H](O)[C@@H](C)/C=C/C=C/C=C/C=C/C=C/C=C/C=C/[C@H](O[C@@H]2O[C@H](C)[C@@H](O)[C@H](N)[C@@H]2O)C[C@@H]2O[C@](O)(C[C@@H](O)C[C@@H](O)[C@H](O)CC[C@@H](O)C[C@@H](O)CC(=O)O[C@H]1C)C[C@H](O)[C@H]2C(=O)O` [amphoteracin-b], for which the “incubation time of scrapie” value is on record as “prolonged the incubation time”; the “prevention of onset of neurological symptoms, neuronal destruction and death” value is “ineffective”.
